Measurements reported in patent publication US11389438B2 (CHDI Foundation, Inc., priority 2019, dated 2022).
Where two headings read alike, the source gives them in different places.

How the values were obtained:
[1] = biological target: pre-formed polyQ46 or Exon1-polyQ46 aggregates (mHTT) (Homo sapiens, UniProt P42858, INS38QQQQQQQQQQQQQQQQQQQQQQQQQ); test: Q46_RBA radioligand binding assay (displacement of [3H]-radioligand)
Protocol: Binding of W to mHTT. A radioligand binding assay was developed to screen for compounds which can efficiently displace a radioligand detailed elsewhere (see, e.g., U.S. Patent Publication No. from US 2017/0292150) pre-formed polyQ46 or Exon1-polyQ46 aggregates (Q46_RBA).
Aggregation of polyQ peptides is initiated by cleavage of the tag from a GST-polyQ46 or from a MBP-Exon1-polyQ46 fusion protein. The pre-formed aggregates are then incubated with compounds which compete with the [^3H]-radiolabelled ligand for binding to the aggregates. The readout is a scintillation based MicroBeta measurement of radioligand bound to aggregates. The activity was indicated as: +++, <100 nM; ++, 100-500 nM, +, >500 nM.

[2] = biological target: VHL complex (VHL, Elongin B, Elongin C, Cul2, Rbx1) (Homo sapiens (Human), UniProt P40337); test: VHL SPR assay; type: binding; details: immobilized VHL complex; read-out: VHL SPR Kd
Description: (§1) Surface Plasmon Resonance (SPR) assays have been developed to test the affinity (KD) of VHL or CRBN-based compounds to respective recombinant ligase complex/domain.
(§2) The assays are based on surface plasmon resonance (SPR), which enables to measure the changes of the local refractive index due to changes of molecular mass on a gold chip surface in the case of a binding event and in a flowing system. To detect binding between both partners, the respective E3 ligase is immobilized to the chip surface, while the test compounds are flown over the chip surface at a steady velocity. The detected changes in the RU response are indicative of the binding event and are concentration dependent.
(§3) These tags provide the anchor for the capturing process to either an NTA or Streptavidin coated chip surface (immobilization level of 3,000-5,000 RU). Because of the rather complex structure of the VHL complex, it was additionally coupled to the chip surface by amino coupling to prevent any protein loss by disruption of the complex in the flowing system.
(§4) To detect binding of compounds and extract dissociation constants KD for the tested compounds to the immobilized E3 ligase, concentration response curves of the compounds were recorded. Compounds were usually tested in 10-pt dilutions up to 20 μM final concentration in assay buffer and were flown over the chip at 30 μL/min. The contact time for each cycle includes 90 s for association and 200 s for dissociation of compounds.
(§5) In the following tables, the Kd values are indicated as: +++, <100 nM; ++, 100-500 nM, +, >500 nM.

[3] = biological target: HTT-Exon1-Q73-EGFP in HeLa cells (soluble mHTT) (Homo sapiens (Human), UniProt P42858, INS38QQQQQQQQQQQQQQQQQQQQQQQQQQQQQQQQQQQQQQQQQQQQQQQQQQQQ); test: HTT degradation assay, soluble mHTT MSD assay; type: cell-based; details: HeLa cells transfected with Exon1-Q73-EGFP, 22 hr, 0.01-10 μM
Protocol: (§6) Compounds described herein were tested for efficacy in HTT-lowering in human HeLa cells transiently overexpressing HTT-Exon1-polyQn proteins. For HTT degradation experiments HeLa cells were transiently transfected with pcDNA3.1(+)-hHTT-E1mixQn-EGFP plasmids for transient expression of HTT-Exon1 proteins of different polyQ length (HTT-exon1-Q23/73/145-EGFP). Two hours after transfection the cells were treated with test compounds at 7 concentrations from 0.01 μM to 10 μM (final assay concentration)+DMSO control. After a 22 hr incubation with test compounds the cells were washed with 1×PBS and lysed in MSD lysis buffer (150 mM NaCl; 20 mM Tris ph 7.5; 1 mM EDTA, 1 mM EGTA; 1% Triton X-100, 1× Phosphatase Inh. Cocktail 2, 1× Phosphatase Inh. Cocktail 3, 1× Protease Inh. Cocktail, 10 mM NaF, 1 mM PMSF) for 30 min on ice. […]
(§7) After an additional washing step, 10 μL per sample were transferred to each well of the antibody-coated MSD plate and incubated with shaking for 1 h at RT. […] After washing three times with washing buffer, 35 μL of read buffer T with surfactant (Meso Scale Discovery) were added to each well. […] The obtained readout is the MSD signal intensity for each well. […]

[4] = biological target: HTT-Exon1-Q73-EGFP in HeLa cells (aggregated HTT) (Homo sapiens (Human), UniProt P42858, INS38QQQQQQQQQQQQQQQQQQQQQQQQQQQQQQQQQQQQQQQQQQQQQQQQQQQQ); test: HTT degradation assay, aggregated HTT MSD assay; type: cell-based; details: HeLa cells transfected with Exon1-Q73-EGFP, 22 hr, 0.01-10 μM
Protocol: as §6, §7

[5] = biological target: mouse CRBN thalidomide binding domain (mCRBN-TBD) (Mus musculus (Mouse), UniProt Q8C7D2); test: CRBN SPR assay; details: immobilized mCRBN-TBD
Description: as §1, §2, §3, §4, §5

[6] = class symbols, read-out: Q46_RBA IC50

VHL complex (VHL, Elongin B, Elongin C, Cul2, Rbx1), sequence (P40337 whole entry, looked up): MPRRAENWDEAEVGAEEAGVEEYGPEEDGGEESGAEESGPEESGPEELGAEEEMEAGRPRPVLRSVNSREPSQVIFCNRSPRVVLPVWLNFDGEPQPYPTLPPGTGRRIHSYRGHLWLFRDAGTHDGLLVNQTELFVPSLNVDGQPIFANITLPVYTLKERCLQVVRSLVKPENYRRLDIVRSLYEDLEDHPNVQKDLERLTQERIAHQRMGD
VHL complex (VHL, Elongin B, Elongin C, Cul2, Rbx1), sequence (Q15370 whole entry partner, looked up): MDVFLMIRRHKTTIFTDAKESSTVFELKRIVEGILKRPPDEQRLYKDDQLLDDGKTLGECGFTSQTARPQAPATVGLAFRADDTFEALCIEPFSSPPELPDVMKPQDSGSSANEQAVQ
VHL complex (VHL, Elongin B, Elongin C, Cul2, Rbx1), sequence (Q15369 whole entry partner, looked up): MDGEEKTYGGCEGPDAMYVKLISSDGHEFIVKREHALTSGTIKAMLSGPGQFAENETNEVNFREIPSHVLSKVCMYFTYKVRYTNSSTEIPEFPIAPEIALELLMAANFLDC
VHL complex (VHL, Elongin B, Elongin C, Cul2, Rbx1), sequence (Q13617 whole entry partner, looked up): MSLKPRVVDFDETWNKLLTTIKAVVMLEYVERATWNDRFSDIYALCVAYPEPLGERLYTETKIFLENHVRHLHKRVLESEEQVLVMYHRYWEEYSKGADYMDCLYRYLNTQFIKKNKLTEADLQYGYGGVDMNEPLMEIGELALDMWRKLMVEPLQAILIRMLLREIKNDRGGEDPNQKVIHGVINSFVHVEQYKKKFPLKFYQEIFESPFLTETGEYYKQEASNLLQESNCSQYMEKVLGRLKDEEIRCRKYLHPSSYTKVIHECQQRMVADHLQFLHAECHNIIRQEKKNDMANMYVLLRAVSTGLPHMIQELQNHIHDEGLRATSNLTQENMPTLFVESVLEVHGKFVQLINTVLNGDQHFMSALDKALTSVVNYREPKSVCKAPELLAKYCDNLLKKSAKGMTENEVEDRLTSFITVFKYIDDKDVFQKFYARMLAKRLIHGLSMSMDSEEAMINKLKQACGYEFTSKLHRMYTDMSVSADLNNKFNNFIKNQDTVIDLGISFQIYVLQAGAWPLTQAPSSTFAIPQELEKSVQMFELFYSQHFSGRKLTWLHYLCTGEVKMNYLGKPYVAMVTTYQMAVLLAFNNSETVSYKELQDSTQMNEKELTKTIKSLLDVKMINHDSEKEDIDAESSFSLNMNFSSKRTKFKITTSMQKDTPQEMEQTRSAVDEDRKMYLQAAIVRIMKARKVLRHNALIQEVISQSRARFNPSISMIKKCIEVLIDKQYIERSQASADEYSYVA
VHL complex (VHL, Elongin B, Elongin C, Cul2, Rbx1), sequence (P62877 whole entry partner, looked up): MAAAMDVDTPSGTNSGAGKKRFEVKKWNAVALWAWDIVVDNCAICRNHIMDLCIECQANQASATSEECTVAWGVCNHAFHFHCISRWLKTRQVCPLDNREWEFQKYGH
mouse CRBN thalidomide binding domain (mCRBN-TBD), sequence (Q8C7D2 321-429): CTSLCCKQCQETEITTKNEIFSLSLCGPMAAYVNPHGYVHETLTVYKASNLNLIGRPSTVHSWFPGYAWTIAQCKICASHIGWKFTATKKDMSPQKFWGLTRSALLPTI
HTT-Exon1-Q73-EGFP in HeLa cells (soluble mHTT), sequence (P42858 other isoform, or with tags, fused parts or gaps limits assumed, stated change not applied): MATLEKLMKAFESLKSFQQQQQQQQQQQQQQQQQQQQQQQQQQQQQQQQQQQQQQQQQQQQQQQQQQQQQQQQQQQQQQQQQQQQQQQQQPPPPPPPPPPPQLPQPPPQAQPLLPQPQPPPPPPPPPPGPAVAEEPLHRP
HTT-Exon1-Q73-EGFP in HeLa cells (aggregated HTT), sequence (P42858 other isoform, or with tags, fused parts or gaps limits assumed, stated change not applied): as above

`CNc1c(-c2cn3c(n2)sc2cc(OCCOCC(=O)N[C@H](C(=O)N4C[C@H](O)C[C@H]4C(=O)NCc4ccc(-c5scnc5C)cc4)C(C)(C)C)ccc23)nc2cc(C#N)ccn12` [Compound 1] was tested, and the IC50 [1] was < 100 nM, the Kd [2] was 100 to 500 nM and the “Reduction of soluble mHTT Exon1-Q73 levels” value [3] was “confirmed”. For the same compound, the “Reduction of aggregated mHTT Exon1-Q73 levels” value [4] was “confirmed”.
`Cn1nc(-c2nc3cc(NC(=O)c4ccc(OCCOCCOCCNc5cccc6c5C(=O)N(C5CCC(=O)NC5=O)C6=O)cn4)ccc3o2)ccc1=O` (stereo not drawn) [Compound 33, 5-{2-[2-(2-{[2-(2,6-Dioxopiperidin-3-yl)-1,3-dioxo-2,3-dihydro-1H-isoindol-4-yl]amino}ethoxy)ethoxy]ethoxy}-N-[2-(1-methyl-6-oxo-1,6-dihydropyridazin-3-yl)-1,3-benzoxazol-5-yl]pyridine-2-carboxamide] was tested, and the IC50 [1] was < 100 nM and the Kd [5] was 100 to 500 nM.
`CN1C(=O)CCC(N2C(=O)c3cccc(NCCOCCOCCOCCOCCOCCOc4ccc(C(=O)Nc5ccc6oc(-c7ccc(=O)n(C)n7)nc6c5)nc4)c3C2=O)C1=O` (stereo not drawn) [Compound 39] was tested, and the IC50 [1] was < 100 nM and the Kd [5] was > 500 nM.
`CN1C(=O)CCC(N2C(=O)c3cccc(NCCOCCOCCOCCOCCOCCOCCOCCOCCOCCOCCOCCOc4ccc(C(=O)Nc5ccc6oc(-c7ccc(=O)n(C)n7)nc6c5)nc4)c3C2=O)C1=O` (stereo not drawn) [Compound 40] was tested, and the IC50 [1, 6] was < 100 nM and the Kd [5] was > 500 nM.
For `CNc1c(-c2cn3c(n2)sc2cc(OCCOCC(=O)N[C@@H](C(=O)N4C[C@@H](O)C[C@@H]4C(=O)NCc4ccc(-c5scnc5C)cc4)C(C)(C)C)ccc23)nc2cc(C#N)ccn12` [Compound 10], the IC50 [1] was < 100 nM and the “Reduction of soluble mHTT Exon1-Q73 levels” value [3] was “less active”.
For `Cn1nc(-c2nc3cc(NC(=O)c4ccc(OCCOCCOCCOCCOCCOCCOCCOCCOCCNc5cccc6c5C(=O)N(C5CCC(=O)NC5=O)C6=O)cn4)ccc3o2)ccc1=O` (stereo not drawn) [Compound 38], the IC50 [1] was < 100 nM and the Kd [5] was 100 to 500 nM.
In the case of `CN1C(=O)CCC(N2C(=O)c3cccc(NCCOCCOCCOc4ccc(COc5ccc6oc(-c7ccc(=O)n(C)n7)nc6c5)nc4)c3C2=O)C1=O` (stereo not drawn) [Compound 30], the IC50 [1] is reported as < 100 nM and the Kd [5] is reported as > 500 nM.
`CN1C(=O)CCC(N2C(=O)c3cccc(NCCOCCOCCOc4ccc(C(=O)Nc5ccc6oc(-c7ccc(=O)n(C)n7)nc6c5)nc4)c3C2=O)C1=O` (stereo not drawn) [Compound 70] was tested, and the IC50 [1] was < 100 nM and the Kd [5] was > 500 nM.
With `Cn1nc(-c2nc3cc(NC(=O)c4ccc(OCCOCCOCCOCCOCCOCCNc5cccc6c5C(=O)N(C5CCC(=O)NC5=O)C6=O)cn4)ccc3o2)ccc1=O` (stereo not drawn) [Compound 32] the IC50 [1] was < 100 nM and the Kd [5] was 100 to 500 nM.
In the case of `Cn1nc(-c2nc3cc(NC(=O)c4ccc(OCCOCCOCCOCCNc5cccc6c5C(=O)N(C5CCC(=O)NC5=O)C6=O)cn4)ccc3o2)ccc1=O` (stereo not drawn) [Compound 36], the IC50 [1] is reported as < 100 nM and the Kd [5] is reported as 100 to 500 nM.
`Cn1nc(-c2nc3cc(OCc4ccc(OCCOCCOCCNc5cccc6c5C(=O)N(C5CCC(=O)NC5=O)C6=O)cn4)ccc3o2)ccc1=O` (stereo not drawn) [Compound 31, 2-(2,6-Dioxopiperidin-3-yl)-4-({2-[2-(2-{[6-({[2-(1-methyl-6-oxo-1,6-dihydropyridazin-3-yl)-1,3-benzoxazol-5-yl]oxy}methyl)pyridin-3-yl]oxy}ethoxy)ethoxy]ethyl}amino)-2,3-dihydro-1H-isoindole-1,3-dione] was tested, and the IC50 [1] was < 100 nM and the Kd [5] was 100 to 500 nM.
For `Cn1nc(-c2nc3cc(NC(=O)c4ccc(OCCOCCOCCOCCOCCOCCOCCOCCOCCOCCOCCOCCOCCOCCOCCOCCNc5cccc6c5C(=O)N(C5CCC(=O)NC5=O)C6=O)cn4)ccc3o2)ccc1=O` (stereo not drawn) [Compound 37], the IC50 [1, 6] was < 100 nM and the Kd [5] was 100 to 500 nM.
In the case of `COc1ccc(COc2ccc3oc(N4CCN(CCOCCOCCOCC(=O)N[C@H](C(=O)N5C[C@H](O)C[C@H]5C(=O)NCc5ccc(-c6scnc6C)cc5)C(C)(C)C)CC4)nc3c2)nc1` [Compound 55, (2S,4R)-1-((S)-2-(tert-butyl)-14-(4-(5-((5-methoxypyridin-2-yl)meth-oxy)benzo[d]oxazol-2-yl)piperazin-1-yl)-4-oxo-6,9,12-trioxa-3-azatetradecanoyl)-4-hydroxy-N-(4-(4-methylthiazol-5-yl)benzyl)pyrrolidine-2-carboxamide], the IC50 [1] is reported as 100 to 500 nM and the Kd [2] is reported as 100 to 500 nM.
`Cn1nc(-c2nc3cc(NC(=O)c4ccc(OCCOCCOCCOCCOCCOCCOCCOCCOCCOCCOCCOCCNc5cccc6c5C(=O)N(C5CCC(=O)NC5=O)C6=O)cn4)ccc3o2)ccc1=O` (stereo not drawn) [Compound 34] was tested, and the IC50 [1, 6] was < 100 nM and the Kd [5] was > 500 nM.
With `COc1ccc(COc2ccc3oc(N4CCN(CCOCCOCCOCCOCC(=O)N[C@H](C(=O)N5C[C@H](O)C[C@H]5C(=O)NCc5ccc(-c6scnc6C)cc5)C(C)(C)C)CC4)nc3c2)nc1` [Compound 56] the IC50 [1] was > 500 nM and the Kd [2] was 100 to 500 nM.
`Cc1ncsc1-c1ccc(CNC(=O)[C@@H]2C[C@@H](O)CN2C(=O)[C@@H](NC(=O)COCCOCCOc2ccc(COc3ccc4oc(-c5ccc(=O)n(C)n5)nc4c3)nc2)C(C)(C)C)cc1` [Compound 47, (2S,4R)-1-[(2S)-3,3-Dimethyl-2-{2-[2-(2-{[6-({[2-(1-methyl-6-oxo-1,6-dihydropyridazin-3-yl)-1,3-benzoxazol-5-yl]oxy}methyl)pyridin-3-yl]oxy}ethoxy)ethoxy]acetamido}butanoyl]-4-hydroxy-N-{[4-(4-methyl-1,3-thiazol-5-yl)phenyl]methyl}pyrrolidine-2-carboxamide] was tested, and the IC50 [1] was < 100 nM and the Kd [2] was 100 to 500 nM.
For `Cc1ncsc1-c1ccc(CNC(=O)[C@@H]2C[C@@H](O)CN2C(=O)[C@@H](NC(=O)COCCOCCOCCOCCOc2ccc(COc3ccc4oc(N5CCNCC5)nc4c3)nc2)C(C)(C)C)cc1` [Compound 54], the IC50 [1] was > 500 nM and the Kd [2] was > 500 nM.
